Data taken from US20160250221A1, “INHIBITORS OF FAPP2 AND USES THEREOF” (FONDAZIONE TELETHON, priority 2013, published 2016).
Entries after “also recorded” stand apart in the source; their conditions may differ.

Key:
FAPP2-HIS-SUMO-C-212 = biological target: T1, FAPP2-HIS-SUMO-C-212 (Homo sapiens, UniProt Q96JA3); assay: FRET GlcCer transfer assay with FAPP2-C212 (384-well); type: biochemical; details: for inhibition of FAPP2 transfer activity: 50 uM compound
T1 construct: the recombinant FAPP2 protein is FAPP2-GLTP-C212 or FAPP2 Full-Length (FL)
T1 sequence (Q96JA3 310-519 limits assumed): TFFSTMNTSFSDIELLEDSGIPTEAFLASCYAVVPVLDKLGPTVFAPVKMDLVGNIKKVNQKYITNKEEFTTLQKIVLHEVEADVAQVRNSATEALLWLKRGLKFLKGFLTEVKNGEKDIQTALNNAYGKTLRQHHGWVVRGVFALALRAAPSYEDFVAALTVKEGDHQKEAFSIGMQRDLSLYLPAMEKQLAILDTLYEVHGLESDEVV
Method: (§1) FAPP2 transfer activity has been evaluated using Fluorescence Resonance Energy Transfer. The FRET assay involves mixing of acceptor vesicles (formed by sonication of 1,2-dioleoyl-sn-glycero-3-phosphocholine (DOPC) suspended in buffer) with donor vesicles containing TopFLUOR-labeled GlcCer (1 mole %) and Di1C18 used as quencher (3 mole %), and recombinant FAPP2 protein (0.5 uM). Recovery of emission intensity at 520 nm (excitation at 485 nm) occurs during FAPP2-mediated transfer of GlcosylCeramide from quenched donor vesicles to unquenched acceptor vesicles. The assay has been performed using FAPP2-GLTP-C212 or FAPP2 Full-Length (FL). In order to conduct the high throughput inhibitor screen, the transfer activity assay was adapted to a microplate format (384 well plate) and read using Synergy Neo HTS Multi-Mode Microplate Reader. First, mixture containing 30 ul of acceptor small unilamellar vesicles, FAPP2 transport protein, and drug in buffer was added to each well in triplicate and read for 1 min to calculate the fluorescence baseline. Then 30 ul donor vesicles were added to each well and read for 15 or 30 mins. Since the increase in fluorescence emission occurs exclusively in presence of FAPP2 transport, the inhibition rate of each compound is evaluated by its ability to decrease the fluorescence emission.

FAPP2-FL-SUMO = biological target: T2, FAPP2-FL-SUMO (Homo sapiens, UniProt Q96JA3); assay: FRET-based GlcCer transfer assay, Example 8 (96-well, full-length FAPP2); type: biochemical; details: for competition with the GlcCer transfer activity of FAPP2: final concentration 10 uM
T2 construct: FAPP2-FL-SUMO (recombinant FAPP2 full length protein tagged with small ubiquitin-related modifier); made in house; host or cells: Rosetta cells (E. coli, own knowledge)
T2 sequence (Q96JA3 1-519): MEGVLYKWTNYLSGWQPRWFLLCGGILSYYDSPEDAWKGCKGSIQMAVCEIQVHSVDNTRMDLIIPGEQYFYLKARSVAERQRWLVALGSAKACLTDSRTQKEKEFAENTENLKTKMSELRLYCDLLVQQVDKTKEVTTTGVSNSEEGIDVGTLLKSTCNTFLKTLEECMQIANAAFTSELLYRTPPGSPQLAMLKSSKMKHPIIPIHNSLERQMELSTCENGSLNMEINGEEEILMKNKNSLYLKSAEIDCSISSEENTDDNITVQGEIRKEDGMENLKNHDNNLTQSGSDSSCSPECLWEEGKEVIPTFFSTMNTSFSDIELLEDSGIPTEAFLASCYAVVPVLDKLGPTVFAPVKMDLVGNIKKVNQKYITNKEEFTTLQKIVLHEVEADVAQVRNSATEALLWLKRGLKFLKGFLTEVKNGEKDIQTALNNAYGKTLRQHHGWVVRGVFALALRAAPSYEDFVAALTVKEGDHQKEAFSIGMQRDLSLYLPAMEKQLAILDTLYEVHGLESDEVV
Method: Specifically, acceptor vesicles (formed by sonication of 1,2-dioleoyl-sn-glycero-3-phosphocholine (DOPC) were suspended in 10 mM NaH2PO4 buffer, pH 7.4, containing 1 mM dithiothreitol and 1 mM EDTA) and were incubated with donor vesicles containing BODIPY-labeled GlcCer (1 or 2 mole %, as indicated) and Di1C18 used as quencher (3 mole %), and recombinant FAPP2 protein (at the indicated concentrations).
Recovery of emission intensity at 520 nm (excitation at 485 nm) occurred during protein-mediated transfer of GlcCer from quenched donor vesicles to unquenched acceptor vesicles.
Phlorizin and Dapagliflozin were resuspended in DMSO (100 mM). The assay was conducted at four different concentrations (1 mM, 500 uM, 200 uM, 100 uM). Both FAPP2 WT and FAPP2 W407A were used to highlight possible non-specific effects of the drugs on fluorescence emission. First, mixture that contained FAPP2, acceptor small unilamellar vesicles and drug in buffer were added to 96 well plates, the plate was immediately loaded into the plate reader. Following 2 sec of shaking, the fluorescence emission @520 nm (excitation 485 nm) was measured at 10 sec intervals for 5 mins to calculate the baseline fluorescence. Then, donor vesicles were added to each well and read again for the indicated time. The experiments were repeated at least 3 times and each measurement performed in triplicate.
To screen and identify small molecules for drug development for Fabry disease treatment, a miniaturized FRET-based in vitro screening assay was developed to screen for small molecules that can inhibit FAPP2. The miniaturized FRET-based in vitro screening assay tests the ability of FAPP2 to transfer GlcCer from donor to acceptor and identifies small molecules able to inhibit the transfer activity of FAPP2. The flFAPP2 was produced as Sumo-fusion protein and assayed in Rosetta cells.

HeLa cells = assay: GSL synthesis by 3H-sphingosine metabolic labelling; type: cell-based
[1] = system: ts045 VSV-G (VSVG) transport; type: cell-based; details: dicoumarol 200 μM
FAPP2-FL-SUMO-HIS = biological target: T3, FAPP2-FL-SUMO-HIS (Homo sapiens, UniProt Q96JA3); assay: FRET GlcCer transfer assay with full-length FAPP2 (Example 9); type: biochemical; details: 50 uM compound; FAPP2-FL-SUMO-HIS at 0.5 uM; measured for 15 mins
T3 construct: The assay has been performed using FAPP2-GLTP-C212 or FAPP2 Full-Length (FL); made in house; host or cells: Rosetta cells (E. coli, own knowledge)
T3 sequence (Q96JA3 1-519): T2 sequence (Q96JA3 1-519)
Method: as §1

[2] = system: 3XHA-Gb3S and 3XHA-GM3S distribution; assay: Immunofluorescence localization of HA-GM3S and HA-Gb3S; type: cell-based; details: BFA 5 μg/ml 30 min
Method: All immunofluorescence experiments were performed as described previously^1,14. Images are confocal optical slices obtained using an LSM 710 (Zeiss) confocal microscope. Colocalization analysis was performed as described in^14 or by using an object-based colocalization method included in the JACoP v2.0 application for ImageJ^16. In brief, individual mini-stacks in nocodazole-treated cells were considered as objects, whose mass-center position was calculated after segmentation, the perfect coincidence of mass-center positions for two distinct labelling (i.e. Gb3S/TGN46, or GM3S/TGN46) in a single ministack was considered as a positive colocalization event.

[3] = FAPP2-C212 at 0.5 uM, measured for 30 mins

## CC(C)=CCC/C(C)=C/CC/C(C)=C/Cc1c(O)cc(C)c(C(=O)O)c1O [Grifolic Acid]
FAPP2-HIS-SUMO-C-212
  ranking as FAPP2 inhibitor in vitro: most active FAPP2 inhibitor in vitro
FAPP2-HIS-SUMO-C-212; 50 uM, FAPP2-C212 at 0.5 uM, measured for 30 mins
  effect on FAPP2-mediated GlcCer transfer: significantly reduced
FAPP2-HIS-SUMO-C-212; 100 uM, FAPP2-C212 at 0.5 uM, measured for 30 mins
  effect on FAPP2-mediated GlcCer transfer: significantly reduced

## Cc1cc(OCCCS(C)(=O)=O)cc(C)c1-c1cccc(COc2ccc3c(c2)OCC3CC(=O)O)c1 (centres unmarked) [TAK-875]
FAPP2-HIS-SUMO-C-212; 100 uM, FAPP2 at 0.5 uM, measured for 15 mins
  effect on FAPP2-mediated GlcCer transfer: significantly reduced

## O=C(CCc1ccc(O)cc1)c1c(O)cc(O)cc1O[C@@H]1O[C@H](CO)[C@@H](O)[C@H](O)[C@H]1O [Phlorizin]
FAPP2-FL-SUMO; four drug concentrations (100 uM, 200 uM, 500 uM, 1 mM)
  inhibition of GlcCer transfer activity of FAPP2: can inhibit; also recorded: inhibits the GlcCer transfer

## CCSc1ccc2c(c1)N(CCCN1CCN(C)CC1)c1ccccc1S2 [Thiethylperazine]
FAPP2-HIS-SUMO-C-212; [3]
  inhibition of FAPP2 transfer activity: 60%

## O=C(Nc1cccc2c(=O)cc(-c3nn[nH]n3)oc12)c1ccc(OCCCCc2ccccc2)cc1 [Pranlukast]
FAPP2-HIS-SUMO-C-212; [3]
  inhibition of FAPP2 transfer activity: 90%

## O=c1oc2ccccc2c(O)c1Cc1c(O)c2ccccc2oc1=O [dicoumarol]
HeLa cells; dicoumarol 200 μM, 3 hours 3H-sphingosine pulse
  GM3 synthesis: strongly inhibited
[1]
  intra-Golgi progression of VSVG: suppressed

## O=C(O)Cn1nnc(-c2cc(N3CCC(Oc4cc(F)ccc4Br)CC3)no2)n1 [MK-8245]
FAPP2-FL-SUMO-HIS
  inhibition of FAPP2 transfer activity: 40%

## C[C@H]1CCC/C=C/[C@@H]2C[C@H](O)C[C@H]2[C@H](O)/C=C/C(=O)O1 [BFA, Brefeldin A]
HeLa cells; BFA 5 μg/mL
  Gb3 synthesis: decreased
HeLa cells; BFA 5 μg/mL, parental cells
  GM3 synthesis: but not that of GM3
HeLa cells; HeLa cells overexpressing GM3S (HeLa-GM3S), BFA 5 μg/mL
  GM3 synthesis: became sensitive
[2]
  redistribution of GM3S to the ER: redistributed

## CCc1oc2ccccc2c1C(=O)c1cc(Br)c(O)c(Br)c1 [Benzbromarone]
FAPP2-HIS-SUMO-C-212
  ranking as FAPP2 inhibitor in vitro: one of the most potent FAPP2 inhibitors
FAPP2-HIS-SUMO-C-212; [3]
  inhibition of FAPP2 transfer activity: 80%

## CCCCCCCCCCCCC/C=C/[C@@H](O)[C@H](COC1OC(CO)C(O)C(O)C1O)NC(=O)CCCCCCC (some centres unmarked) [C8-GlcCer]
FAPP2-FL-SUMO
  competition with the GlcCer transfer activity of FAPP2: able to inhibit transfer by competition
FAPP2-FL-SUMO; listed as C8-G1Cer
  competition with the GlcCer transfer activity of FAPP2: competes

## COc1cc(C(=O)NS(=O)(=O)c2ccccc2C)ccc1Cc1cn(C)c2ccc(NC(=O)OC3CCCC3)cc12 [Zafirlukast]
FAPP2-HIS-SUMO-C-212; [3]
  inhibition of FAPP2 transfer activity: 90%

## CCOc1cc(CC(=O)N[C@@H](CC(C)C)c2ccccc2N2CCCCC2)ccc1C(=O)O [Repaglinide]
FAPP2-FL-SUMO-HIS
  inhibition of FAPP2 transfer activity: 50%
